Measured values reported in US20100055169A1, “CATIONIC LIPIDS AND USES THEREOF” (ABBOTT LABORATORIES, priority 2008, published 2010).

Assay: RiboGreen assay of siRNA encapsulation efficiency, in vitro formulations of Lipid-Based Particles
Type: physicochemical
Conditions: in vitro formulation b: Cationic lipid/PEG-cholesterol/DSPC/Chol 45/10/15/30 wt %, lipid:siRNA 25:1
Experimental: The mixing solution of cationic lipids, cholesterol, non-cationic lipids and PEG-lipids was prepared in ethanol (total concentration at 10 mg/mL). siSTABLE (purchased from ThermoFisher) (sense-5′ GGGGAAAGCUGGCAAGAUUUU-3′SEQ ID NO. 1, antisense-5′-AAUCUUGCCAGCUUUCCCCUU-3′ SEQ ID NO: 2) % stock solution was prepared in 10 mg/mL of solution by dissolving 10 mg siRNA in 1 mL of RNAse-free UltraPure Water. The calculated amount of siRNA solution was added to 1 mL of citrate buffer (pH 4.0, 20 mM), to provide an siRNA concentration of 0.2 mg/mL, and warmed to 60 C. The calculated amount of lipid solution was warmed to 60 C, transferred to a 0.5 mL syringe with 28½ gauge needle, and injected into the citrate buffer with stirring at 60 C. After 3 minutes, 3 mL of PBS solution at room temperature (pH 7.4) was added into the lipid mixture with stirring. The Lipid-Based Particle solution was cooled to room temperature.
The siRNA concentrations were measured using Quanti-iT RiboGreen RNA reagent (Molecular Probes, (R11490)). Vesicle sizes were characterized by dynamic light scattering with a DynaPro™ Plate Reader (Wyatt Technology) in 96-well half-area UV plate (Coring) after diluting the formulation sample (20 μL) in phosphate buffered saline (80 μL) at a pH of about 7-8. A 1% agarose gel-based assay was used for analyzing nuclease degradation and protection. Encapsulation efficiency (EE) was calculated using data obtained from a RiboGreen assay.
RNA concentration and encapsulation efficiency were determined using a Quant-iT® Ribogreen RNA reagent and kit available from Invitrogen. The siRNA was released from the Lipid-Based Particle using one of the following reagents: ethanol, Triton X-100, or phenol/chloroform. The siRNA concentration is quantified using fluorescent reading at 480 nm/520 nm.

| Structure (SMILES) | % Encapsulation Efficiency |
| --- | --- |
| CCCCC/C=C\C/C=C\CCCCCCCCOCC(CCOCCN(CC)CC)OCCCCCCCC/C=C\C/C=C\CCCCC (stereo not drawn) [Example 25, N-(2-{3,4-bis[(9Z,12Z)-octadeca-9,12-dienyloxy]butoxy}ethyl)-N,N-diethylamine] | 96.1% |
| CCCCC/C=C\C/C=C\CCCCCCCCOCC(CCNCCCn1ccnc1)OCCCCCCCC/C=C\C/C=C\CCCCC (stereo not drawn) [Example 44, N-{3,4-bis[(9Z,12Z)-octadeca-9,12-dienyloxy]butyl}-N-[3-(1H-imidazol-1-yl)propyl]amine] | 98% |
| CCCCC/C=C\C/C=C\C/C=C\C/C=C\CCCC(=O)OCC(CCN1CCCC1)OC(=O)CCC/C=C\C/C=C\C/C=C\C/C=C\CCCCC (stereo not drawn) [Example 35, 1-{[(5Z,8Z,11Z,14Z)-icosa-5,8,11,14-tetraenoyloxy]methyl}-3-pyrrolidin-1-ylpropyl(5Z,8Z,11Z,14Z)-icosa-5,8,11,14-tetraenoate] | 83.5% |
| CCCCC/C=C\C/C=C\CCCCCCCCOCC(CCNCCCN(C)C)OCCCCCCCC/C=C\C/C=C\CCCCC (stereo not drawn) [Example 48, N-{3,4-bis[(9Z,12Z)-octadeca-9,12-dienyloxy]butyl}-N′,N′-dimethylpropane-1,3-diamine] | 99% |
| CCCCC/C=C\C/C=C\CCCCCCCCOCC(CCOCCN1CC1)OCCCCCCCC/C=C\C/C=C\CCCCC (stereo not drawn) [Example 27, 1-(2-{3,4-bis[(9Z,12Z)-octadeca-9,12-dienyloxy]butoxy}ethyl)aziridine] | 97% |
| CCCCC/C=C\C/C=C\CCCCCCCCOCC(CCOCCN(C)C)OCCCCCCCC/C=C\C/C=C\CCCCC (stereo not drawn) [Example 29, N-(2-{3,4-bis[(9Z,12Z)-octadeca-9,12-dienyloxy]butoxy}ethyl)-N,N-dimethylamine] | 96.4% |
| CCCCCCCCCCCCCCCCCCOCC(CCN1CCCC1)OCCCCCCCCCCCCCCCCCC (stereo not drawn) [Example 37, 1-[3,4-bis(octadecyloxy)butyl]pyrrolidine] | 98.5% |
| CCCCCCCC/C=C/CCCCCCCCOCC(CCN1CCCC1)OCCCCCCCC/C=C/CCCCCCCC (stereo not drawn) [Example 40, 1-{3,4-bis[(9E)-octadec-9-enyloxy]butyl}pyrrolidine] | 97% |

Next, values leading:

| % Encapsulation Efficiency | Structure (SMILES) |
| --- | --- |
| 99% | CCCCCCCC/C=C\CCCCCCCCOCC(CCN1CCCC1)OCCCCCCCC/C=C\CCCCCCCC (stereo not drawn) [Example 34, 1-{3,4-bis[(9Z)-octadec-9-enyloxy]butyl}pyrrolidine] |
| 99% | CCCCC/C=C\C/C=C\CCCCCCCCOC[C@H](CCOC(=O)NCCCN1CCCC1)OCCCCCCCC/C=C\C/C=C\CCCCC [Example 36, (3S)-3,4-bis[(9Z,12Z)-octadeca-9,12-dienyloxy]butyl 3-pyrrolidin-1-ylpropylcarbamate] |
| 99% | CCCCC/C=C\C/C=C\CCCCCCCCOCC(CCN1C(C)CCC1C)OCCCCCCCC/C=C\C/C=C\CCCCC (stereo not drawn) [Example 51, 1-{3,4-bis[(9Z,12Z)-octadeca-9,12-dienyloxy]butyl}-2,5-dimethylpyrrolidine] |
| 98% | CCCCC/C=C\C/C=C\CCCCCCCCOCC(CCN1CCC(n2ccnc2)C1)OCCCCCCCC/C=C\C/C=C\CCCCC (stereo not drawn) [Example 46, 1-(1-{3,4-bis[(9Z,12Z)-octadeca-9,12-dienyloxy]butyl}pyrrolidin-3-yl)-1H-imidazole] |
| 99% | CCCCC/C=C\C/C=C\CCCCCCCCOCC(CCN1CCC1)OCCCCCCCC/C=C\C/C=C\CCCCC (stereo not drawn) [Example 49, 1-{3,4-bis[(9Z,12Z)-octadeca-9,12-dienyloxy]butyl}azetidine] |
| 99% | CCCCCCCC/C=C\CCCCCCCC(=O)OCC(CCN1CCCC1)OC(=O)CCCCCCC/C=C\CCCCCCCC (stereo not drawn) [Example 33, 1-{[(9Z)-octadec-9-enoyloxy]methyl}-3-pyrrolidin-1-ylpropyl (9Z)-octadec-9-enoate] |
| 98% | CC/C=C\C/C=C\C/C=C\CCCCCCCCOCC(CCN1CCCC1)OCCCCCCCC/C=C\C/C=C\C/C=C\CC (stereo not drawn) [Example 42, 1-{3,4-bis[(9Z,12Z,15Z)-octadeca-9,12,15-trienyloxy]butyl}pyrrolidine] |
